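96-well plates; 48 h exposure; 5 concentrations. Endpoints by linear interpolation between flanking doses. Not reached: highest tested concentration assigned. GI50 is the concentration that inhibits growth by half. TGI is the concentration that stops growth completely.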
How the values were obtained:
Assay in all cases: NCI anticancer screen, dose series, 48 h
A549 NSCLC = tested on: A549 NSCLC
HCT-116 colon = tested on: HCT-116 colon
SK-MEL-5 melanoma = tested on: SK-MEL-5 melanoma
UACC-257 melanoma = tested on: UACC-257 melanoma
SK-MEL-2 melanoma = tested on: SK-MEL-2 melanoma
UACC-62 melanoma = tested on: UACC-62 melanoma
SN12C renal = tested on: SN12C renal
IGROV1 ovarian = tested on: IGROV1 ovarian
MCF7 breast = tested on: MCF7 breast
OVCAR-4 ovarian = tested on: OVCAR-4 ovarian

Compound	GI50 (A549 NSCLC) [µM]	TGI (A549 NSCLC) [µM]	GI50 (HCT-116 colon) [µM]	TGI (HCT-116 colon) [µM]	GI50 (SK-MEL-5 melanoma) [µM]	TGI (SK-MEL-5 melanoma) [µM]	GI50 (UACC-257 melanoma) [µM]	TGI (UACC-257 melanoma) [µM]	GI50 (SK-MEL-2 melanoma) [µM]	TGI (SK-MEL-2 melanoma) [µM]	GI50 (UACC-62 melanoma) [µM]	TGI (UACC-62 melanoma) [µM]	GI50 (SN12C renal) [µM]	TGI (SN12C renal) [µM]	GI50 (IGROV1 ovarian) [µM]	TGI (IGROV1 ovarian) [µM]	GI50 (MCF7 breast) [µM]	TGI (MCF7 breast) [µM]	TGI (OVCAR-4 ovarian) [µM]	GI50 (OVCAR-4 ovarian) [µM]
CCCCN(CCCC)c1cc(C(=O)CCCCCN)c2ccccc2n1	1.78	3.38	1.78	3.16	1.58	2.92	1.76	3.5	2.56	4.45	1.66	3.07	1.63	3.07	–	–	–	–	–	–
COc1cc(-c2nn(C)nc2-c2cc3ccccc3s2)cc(OC)c1OC	0.169	> 100	0.0738	> 100	0.225	> 100	51.5	> 100	0.0597	21.2	0.0538	> 100	–	–	0.707	> 100	0.0403	> 100	–	–
CCOC(=O)CC(=O)N(c1ccc(OC)cc1)C(C(=O)OC)c1ccccc1 (stereo not drawn)	–	> 100	–	> 100	–	> 100	–	> 100	–	> 100	–	> 100	–	> 100	–	> 100	–	> 100	–	–
O=C(Nc1cccc(-n2cc(-c3ccncc3)c(-c3cc(O)cc(Cl)c3)n2)c1)Nc1ccc(Cl)c(Cl)c1	1.96	7.54	1.74	4.1	1.62	3.04	1.95	4.3	1.8	4.04	1.69	3.76	2.78	18.1	2.86	9.23	2.8	9.75	–	–
CCOC(=O)/C(=C/c1cc(OC)ccc1OC)CC(=O)O	–	> 100	–	> 100	–	> 100	–	> 100	–	34.5	–	> 100	–	> 100	–	> 100	–	–	> 100	–
C=CC[Se]C(=O)c1ccccc1OC(C)=O	0.769	> 100	–	–	1.94	4.09	2.09	5	2.05	4.33	1.79	3.35	1.61	3.01	1.7	3.11	1.83	4.31	3.19	1.68
O=S1Cc2ccccc2CS1 (stereo not drawn)	–	> 100	–	57.2	–	> 100	–	32	–	–	–	28.9	–	28.3	–	> 100	–	–	30.6	–
CC(=O)NC(ON1C(=O)COc2ccccc21)C(Cl)(Cl)Cl (stereo not drawn)	–	> 100	–	> 100	–	–	–	> 100	–	> 100	–	> 100	–	> 100	–	> 100	–	–	> 100	–
Cc1ccc(NC(=O)C2C(=O)C(=O)N(c3ccc(C)cc3)C2=O)cc1 (stereo not drawn)	–	> 100	–	> 100	–	> 100	–	> 100	–	> 100	–	> 100	–	> 100	–	> 100	–	–	> 100	–
Cc1c(NC(=O)CCCl)c(=O)oc2c(C)c3occc(=O)c3cc12	–	> 100	–	> 100	–	> 100	–	> 100	–	–	–	–	–	–	–	> 100	–	> 100	> 100	–
Nc1ccccc1S(=O)c1ccccc1 (stereo not drawn)	–	> 100	–	> 100	–	> 100	–	> 1	–	> 100	–	> 100	–	> 100	–	> 100	–	–	> 100	–
CC(=O)c1cc2c3c(c1)c1cc4c(cc1c(=O)n3CC2)OCO4	–	> 100	–	26.6	–	> 100	–	> 100	–	> 100	–	53.9	–	> 100	–	> 100	–	–	> 100	–
Cc1cc(=O)[nH]c(CNC(=O)c2cccc3ccccc23)n1	–	> 100	–	> 100	–	> 100	–	> 100	–	–	–	> 100	–	> 100	–	> 100	–	–	> 100	–
c1ccc2c(c1)nnn1c3cnccc3nc21	–	> 100	–	> 100	–	> 100	–	> 100	–	> 100	–	> 100	–	> 100	–	> 100	–	–	96.6	–
CC1C(=O)CCC1C(Sc1ccccc1)(Sc1ccccc1)Sc1ccccc1 (stereo not drawn)	–	> 100	–	> 100	–	73.5	–	> 100	–	> 100	–	> 100	–	91	–	78.4	–	–	> 100	–
C=C1C(=O)O[C@H]2[C@H]1CC/C(COC(=O)NCc1c[nH]c3ccc(OC)cc13)=C\CC[C@@]1(C)O[C@@H]21	3.26	15	0.268	1.22	1.38	2.69	2.02	5.01	6.27	21.2	1.7	3.69	1.42	5.21	2.55	7.38	–	–	11.8	2.14
CCCCC(SC(=S)N(CC)CC)C(=O)Nc1nc(CC(=O)OCC)cs1 (stereo not drawn)	30.8	> 100	29.8	> 100	13.5	30.9	35.6	> 100	29.2	86	29.8	> 100	77.8	> 100	37.4	> 100	–	–	> 100	30.6
COC(=O)C1C2CC3C(OC(=O)C31)C2I (stereo not drawn)	–	> 100	–	> 100	–	> 100	–	> 100	–	> 100	–	> 100	–	> 100	–	> 100	–	–	> 100	–
O=[n+]1cnn([O-])c2ccccc21	–	> 100	–	36.9	–	–	–	37.1	–	96.2	–	39.4	–	> 100	–	28.5	–	44.4	–	–

— PubChem BioAssay (NCI)
